Assay results published in PubChem BioAssay (NCI).
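96-well plates; 48 h exposure; 5 concentrations. Endpoints by linear interpolation between flanking doses. Not reached: highest tested concentration assigned. GI50: concentration for 50% inhibition of growth. The concentration for full growth arrest is given as TGI.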 Where a SMILES comes first, the peptide text is derived from it. The star is where a group is joined. Boc = CC(C)(C)OC(=O)*

Assays:
Assay in all cases: DTP human tumour cell line panel, 48 h
UO-31 renal = test system: UO-31 renal
SW-620 colon = test system: SW-620 colon
EKVX NSCLC = test system: EKVX NSCLC
IGROV1 ovarian = test system: IGROV1 ovarian
MDA-MB-435 = test system: MDA-MB-435
PC-3 prostate = test system: PC-3 prostate
MDA-N = test system: MDA-N
MDA-MB-231 breast = test system: MDA-MB-231 breast
RPMI-8226 leukemia = test system: RPMI-8226 leukemia
K-562 leukemia = test system: K-562 leukemia

SMILES | TGI (UO-31 renal) | TGI (SW-620 colon) | TGI (EKVX NSCLC) | TGI (IGROV1 ovarian) | TGI (MDA-MB-435) | TGI (PC-3 prostate) | TGI (MDA-N) | TGI (MDA-MB-231 breast) | TGI (RPMI-8226 leukemia) | TGI (K-562 leukemia) | GI50 (UO-31 renal) | GI50 (SW-620 colon) | GI50 (EKVX NSCLC) | GI50 (IGROV1 ovarian) | GI50 (MDA-MB-435) | GI50 (MDA-MB-231 breast) | GI50 (K-562 leukemia)
Oc1cccc2c(Br)ccnc12 | 21.6 µM | 16.7 µM | 11.6 µM | 9.41 µM | 34.3 µM | 38.1 µM | > 50.4 µM | 16.3 µM | 4.72 µM | > 22.5 µM |  |  |  |  |  |  | 
Cc1c(OCc2cccc3ccccc23)ccc2c(=O)cc(SCCN3CCOCC3)oc12 | > 100 µM | > 100 µM | > 100 µM | > 100 µM | > 100 µM | > 100 µM |  | > 100 µM |  | > 100 µM |  |  |  |  |  |  | 
CC(c1ccccc1)n1cncc1C(=O)NN1CCN(C)CC1 (stereo not given) |  | > 10 µM | > 10 µM | > 10 µM | > 10 µM | > 10 µM | > 10 µM | > 10 µM | > 10 µM | > 10 µM |  |  |  |  |  |  | 
CC(C)[C@H](C)/C=C/[C@@H](C)C1CC[C@H]2[C@@]34C=C[C@]5(C[C@@H](O)CC[C@]5(C)[C@H]3CC[C@]12C)OO4 (stereo not given in full) | > 100 µM | 78.8 µM | > 100 µM | > 100 µM | 91.6 µM |  | > 100 µM | 84.9 µM |  |  |  |  |  |  |  |  | 
Cc1cn(C2CC(COCc3ccccc3)N(CCO[Si](C)(C)C(C)(C)C)O2)c(=O)[nH]c1=O (stereo not given) | 28.2 µM | 35.6 µM |  |  | 34.9 µM | 18.1 µM | 27.9 µM | 33.2 µM | 34.1 µM | 19.3 µM |  |  |  |  |  |  | 
CCC1=C(C[C@H]2NCCc3cc(OC)c(OC)cc32)C[C@H]2c3cc(OC)c(OC)cc3CCN2C1 | 0.923 µM | 11.3 µM | 0.175 µM | 0.444 µM |  |  |  |  | 0.229 µM |  |  |  |  |  |  |  | 
COC(=O)C(Cc1c[nH]c2ccccc12)NC(=O)C(Cc1c[nH]c2ccccc12)NC(=O)C(Cc1c[nH]c2ccccc12)NC(=O)C(Cc1c[nH]c2ccccc12)NC(=O)C(Cc1c[nH]c2ccccc12)NC(=O)C(Cc1c[nH]c2ccccc12)NC(=O)C(Cc1c[nH]c2ccccc12)NC(=O)OC(C)(C)C (stereo not given) (Boc-WWWWWWW-OMe; configuration not given here) | > 100 µM | > 100 µM |  | > 100 µM | > 100 µM | > 100 µM | > 100 µM | > 100 µM | > 100 µM | > 100 µM |  |  |  |  |  |  | 
COC(=O)CCC(=O)NC1=C(Nc2ccccc2)C(=O)c2ccccc2C1=O | 32.2 µM | 30.6 µM | 34.2 µM | 26 µM | 3.45 µM | 65.2 µM | 3.59 µM | 30.1 µM | 52.3 µM | > 57.6 µM |  |  |  |  |  |  | 
O=C1N2CCC[C@H]2CS1(=O)=O | 28.5 µM | 42.1 µM | 44.4 µM | 34.7 µM | 36.7 µM | 31.4 µM |  | 29.6 µM | 10.8 µM | 32.1 µM |  |  |  |  |  |  | 
O=[N+]([O-])c1ccc(N2N=C(c3c(O)ccc4ccccc34)CC2c2ccc(Cl)cc2)c([N+](=O)[O-])c1 (stereo not given) | > 100 µM | > 100 µM |  | > 100 µM | > 100 µM | 66.4 µM | > 100 µM | 56.2 µM | > 100 µM | 45.6 µM |  |  |  |  |  |  | 
O=C(O)Cn1c2c(c3c1-c1ccccc1C3=O)C(=O)CCC2 | > 100 µM | > 100 µM | > 100 µM | > 100 µM | > 100 µM |  |  | > 100 µM |  | > 100 µM | > 100 µM | > 100 µM | > 100 µM | > 100 µM | > 100 µM | > 100 µM | > 100 µM
O=c1cc(N2CCOCC2)n2c(ccc3ccccc32)n1 | > 100 µM | > 100 µM | > 100 µM | > 100 µM | > 100 µM | > 100 µM | 63 µM | > 100 µM | > 100 µM | > 100 µM |  |  |  |  |  |  | 
CC(=O)CC(=O)N1CCSC1=S | > 10 µM | > 10 µM | > 10 µM | > 10 µM | > 10 µM | > 10 µM | > 10 µM | > 10 µM | > 10 µM | > 10 µM |  |  |  |  |  |  | 
Cc1cc(S(=O)(=O)Nc2nc3cscc3c(=O)n2N)c(S)cc1Cl |  | > 100 µM | > 100 µM | > 100 µM | > 100 µM | > 100 µM | > 100 µM | > 100 µM | > 100 µM | > 100 µM |  |  |  |  |  |  | 
Cc1ccc(N=C/C=C(\Nc2ccc(C)cc2)c2ccc3ccccc3c2)cc1 | 13.1 µM | 24.9 µM |  | 15.1 µM | 0.493 µM | 18 µM |  | 2.12 µM | 2.56 µM | 2.72 µM |  |  |  |  |  |  | 
Cc1ccc(N2C(=O)C3CSCN3C2=O)cc1 (stereo not given) | > 100 µM | > 100 µM | > 100 µM | > 100 µM |  |  |  |  | > 100 µM | > 100 µM |  |  |  |  |  |  | 
CC(C)(C)OC(=O)C(C#N)C(=O)c1ccc(C(=O)O)[nH]1 (stereo not given) | > 100 µM | > 100 µM | > 100 µM |  | > 100 µM | > 100 µM | > 100 µM | > 100 µM | > 100 µM | > 100 µM |  |  |  |  |  |  | 
c1ccc2c(Nc3ncco3)cccc2c1 | > 10 µM | > 10 µM | > 10 µM | > 10 µM | > 10 µM | > 10 µM | > 10 µM | > 10 µM |  | > 10 µM |  |  |  |  |  |  | 
CC(CCc1nc2ccccc2s1)(c1ccc(O)cc1)c1ccc(O)cc1 | 31.3 µM | 43.5 µM | 32.3 µM | 28.3 µM | 30.8 µM | 27.9 µM | 31.1 µM | 32 µM |  | 47.2 µM |  |  |  |  |  |  | 
Cn1c2ccc(Cl)cc2c2ccc3c(c21)C(=O)C=CC3=O |  | > 10 µM | > 10 µM | > 10 µM | > 10 µM | > 10 µM | > 10 µM | > 10 µM | > 10 µM | > 10 µM |  |  |  |  |  |  | 
COc1ccc(/C=c2\[nH]c3nc(=O)c(N4CCCCC4)c(N)n3c2=O)cc1 | > 100 µM | > 100 µM | > 100 µM | > 100 µM | > 100 µM |  | > 100 µM | > 100 µM | > 100 µM | > 100 µM |  |  |  |  |  |  | 
O=c1c2ccccc2nc(N/N=C/c2ccc([N+](=O)[O-])cc2)n1-c1ccccc1 | > 100 µM |  | 79.6 µM | > 100 µM | > 100 µM | > 100 µM | > 100 µM | > 100 µM | > 100 µM | > 100 µM |  |  |  |  |  |  | 
